Experimental data reported in article PMC10888717, “Identification of Novel Non-Nucleoside Inhibitors of Zika Virus NS5 Protein Targeting MTase Activity” (International Journal of Molecular Sciences, 2024).
Entries after “also recorded” stand apart in the source; their conditions may differ.

Legend:
[1] = Metabolic stability in human liver microsomes; format: in vitro ADME; details: 1 h, 37 °C, three experiments
Experimental: The metabolic stability was investigated by incubating selected compounds with human liver microsomes (HLMs) for 1 h at 37 °C. The percentage of non-metabolized compounds and metabolites was analyzed by HPLC-UV-MS. […] HPLC analysis confirmed the presence of the oxidated metabolites in small percentages.
For the ADME property determination, an Agilent 1260 Infinity HPLC-DAD interfaced with an Agilent MSD 6130 (Agilent Technologies, Palo Alto, CA, USA) was used. Chromatographic conditions were optimized using a Phenomenex Kinetex C18-100 Å column (150 × 4.6 mm) with 5 µm particle size and gradient elution with a binary solution (eluent A: H2O; eluent B: ACN; both eluents were acidified with formic acid 0.1% v/v) at room temperature. The LC analyses started with 5% of B (from t = 0 to t = 1 min), then B was increased to 95% (from t = 1 to t = 10 min) and then kept at 95% (from t = 10 to t = 19 min) and finally returned to initial conditions in 1.0 min. The flow rate was 0.6 mL/min and the injection volume was 10 µL.
The test was performed as previously reported with minor modifications. Each compound was dissolved in DMSO and phosphate buffer (0.025 M, pH 7.4), and human liver microsomes (0.2 mg/mL) and a NADPH-regenerating system in MgCl2 48 mM were added to a final volume of 500 µL. This solution was incubated for 1 h at 37 °C and then the reaction was stopped and quenched using 1 mL of ACN. The reaction mixtures were then centrifuged (4000 rpm for 10 min) and the supernatant was taken, dried under nitrogen flow, and then resuspended in 100 µL of methanol. The parent drug and metabolites were subsequently determined using the chromatographic conditions described above. The percentage of non-metabolized compounds was calculated by comparison with reference solutions. The determination of metabolic stability for each compound was performed in three independent experiments.

[2] = tested on: Tenebrio molitor coleoptera (TMC); test: Median lethal dose assessment in Tenebrio molitor coleoptera; format: in vivo; details: acute administration
Experimental: (§1) The median lethal dose (LD50) was determined for compound 17 in a Tenebrio molitor coleoptera (TMC) toxicity model published previously. Due to ethical reasons, and according to the 3Rs principle, the insect model was preferred to the murine model to preliminarily evaluate the potential in vivo toxicity. […] The experiment was repeated until LD50 was determined and finally confirmed with ten TMCs. […] Even if complete pharmacokinetics should be performed to determine plasmatic levels, the administered concentration was higher than IC50. Considering that no antiviral efficacy models have been developed in insects, future studies with optimized compounds should be translated into suitable models (i.e., mice).
(§2) Tenebrio molitor coleoptera (TMC) and pupae for acute toxicity tests were fed at the University of Siena (Siena, Italy) on a diet previously published. Pupae and adult TMC were reared in semi-dark conditions at a temperature of 27 ± 1 °C and a relative humidity (RH) of 40–50%.
(§3) Median lethal dose assessment was carried out as previously published. Three days after the mutation, TMCs were randomly chosen. The appropriate amount of compound 17 was solubilized at the appropriate dose expressed in mg/kg of insect weight. […]

[3] = as above; format: in vivo; details: in vivo, 200 mg/kg, single dose into hemocoel, 7 days observation
Experimental: as §1, §2, §3

## CN1C(=O)c2ccc(NC(=O)c3cc4cccc(Cl)c4s3)cc2C1=O [Compound 17]
[1]
  HLM Stab.% ± SD (percentage of non-metabolized compound): 96.39 ± 0.11%
[2]
  in vivo toxicity (in words): well tolerated; also recorded: less toxic than commonly used drugs such as paracetamol and carbamazepine
[3]
  LD50 at 7 days: 150 mg/kg
